Values of other authors in patent publication US9603811B2, “Pharmaceutical compositions of carotenoid chylomicrons” (HEALTH-EVER BIOTECH CO. LTD, priority 2013, dated 2017).
Like-named read-outs stand apart in the source and are kept apart here.

solubility in water: practically insoluble in water | solubility in water (listed as Solanorubin): insoluble in water
SMILES: CC(C)=CCC/C(C)=C/C=C/C(C)=C/C=C/C(C)=C/C=C/C=C(C)/C=C/C=C(C)/C=C/C=C(\C)CCC=C(C)C [solanorubin]
